The values below come from US11725000B2, “Apoptosis inhibitors” (National Institute of Biological Sciences, Beijing, priority 2017, dated 2023).

The test concerns U2OS_Bim cells. The experiment in a line: Apoptosis inhibition assay (Bim-induced apoptosis, cell viability by ATP level). It counts as cell-based. The settings on record: U2OS_Bim cells; estimated (*Est.) / preliminary results; numbering of Tables 4a/4b; read-out: EC50. The method, boiled down: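 Apoptosis was triggered by doxycycline (0.1 μg/mL) induction of Bim, one hour after compound addition to U2OS_Bim cells. Survival was measured after 24 h from cellular ATP (CellTiter-Glo), relative to DMSO, with zVAD at 20 μM as rescue control. Data are duplicate means, some estimated from preliminary results.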
In the case of `Cc1cc(-c2cc(F)c(=O)n(Cc3cccc(N(C)C)c3)c2)nc(S(=O)(=O)CCC(OCc2ccccc2F)c2ccccc2)n1` (stereo not drawn) [Compound 339], the EC50 was 1 to 1000 nM.

As to `Cc1cc(-c2cc(F)c(=O)n(Cc3ccn4ccnc4c3)c2)nc(S(=O)(=O)CCC(OCc2ccccc2F)c2ccccc2)n1` (stereo not drawn) [Compound 340], the EC50 was 1 to 1000 nM.

For the compound `Cc1cc(-c2cc(F)c(=O)n(Cc3ccc4[nH]c(=O)[nH]c4c3)c2)nc(S(=O)(=O)CCC(OCc2ccccc2F)c2ccccc2)n1` (stereo not drawn) [Compound 341], the EC50 is 1 to 1000 nM.

Take `Cc1cc(-c2cc(F)c(=O)n(Cc3ccc4c(c3)n(C)c(=O)n4C)c2)nc(S(=O)(=O)CCC(OCc2ccccc2F)c2ccccc2)n1` (stereo not drawn) [Compound 342]: the EC50 was 1 to 1000 nM.

Take `Cc1cc(-c2cc(F)c(=O)n(Cc3ccc4cn(C)nc4c3)c2)nc(S(=O)(=O)CCC(OCc2ccccc2F)c2ccccc2)n1` (stereo not drawn) [Compound 343]: the EC50 is 1 to 1000 nM.

As to `Cc1cc(-c2cc(F)c(=O)n(Cc3ccc4c(c3)NC(=O)CO4)c2)nc(S(=O)(=O)CCC(OCc2ccccc2F)c2ccccc2)n1` (stereo not drawn) [Compound 344], the EC50 is 1 to 1000 nM.

Take `Cc1cc(-c2cc(F)c(=O)n(Cc3ccc4[nH]c(=O)c(=O)[nH]c4c3)c2)nc(S(=O)(=O)CCC(OCc2ccccc2F)c2ccccc2)n1` (stereo not drawn) [Compound 345]: the EC50 is 1 to 1000 nM.

Regarding `Cc1cc(-c2cc(F)c(=O)n(Cc3ccc4c(c3)NCCN4)c2)nc(S(=O)(=O)CCC(OCc2ccccc2F)c2ccccc2)n1` (stereo not drawn) [Compound 346], the EC50 was 1 to 1000 nM.

Turning to `Cc1cc(-c2cc(F)c(=O)n(Cc3ccc4c(c3)N(C)CCN4C)c2)nc(S(=O)(=O)CCC(OCc2ccccc2F)c2ccccc2)n1` (stereo not drawn) [Compound 347], the EC50 was 1 to 1000 nM.

As to `Cc1cc(-c2cc(F)c(=O)n(Cc3ccc4ccn(C)c4c3)c2)nc(S(=O)(=O)CCC(OCc2ccccc2F)c2ccccc2)n1` (stereo not drawn) [Compound 348], the 50% effective concentration (EC50) was 1 to 1000 nM.

As to `Cc1cc(-c2cc(F)c(=O)n(Cc3ccc4ccn(C)c4c3)c2)nc(S(=O)(=O)CCC(OCc2ccccc2F)c2ccccc2)n1` (stereo not drawn) [Compound 349], the concentration for a half-maximal effect (EC50) is 1 to 1000 nM.

Turning to `Cc1cc(-c2cc(F)c(=O)n(Cc3ccc4c(c3)CC(=O)N4)c2)nc(S(=O)(=O)CCC(OCc2ccccc2F)c2ccccc2)n1` (stereo not drawn) [Compound 350], the EC50 is 1 to 1000 nM.

`Cc1cc(-c2cc(F)c(=O)n(Cc3ccc4c(c3)CC(=O)N4C)c2)nc(S(=O)(=O)CCC(OCc2ccccc2F)c2ccccc2)n1` (stereo not drawn) [Compound 351]: the EC50 was 1 to 1000 nM.

As to `Cc1cc(-c2cc(F)c(=O)n(Cc3ccc4c(c3)CCN4C)c2)nc(S(=O)(=O)CCC(OCc2ccccc2F)c2ccccc2)n1` (stereo not drawn) [Compound 352], the EC50 was 1 to 1000 nM.

Regarding `Cc1cc(-c2cc(F)c(=O)n(Cc3ccc4c(c3)OCN4C)c2)nc(S(=O)(=O)CCC(OCc2ccccc2F)c2ccccc2)n1` (stereo not drawn) [Compound 353], the EC50 is 1 to 1000 nM.

As to `Cc1cc(-c2cc(F)c(=O)n(Cc3ccc4c(c3)N(C)CO4)c2)nc(S(=O)(=O)CCC(OCc2ccccc2F)c2ccccc2)n1` (stereo not drawn) [Compound 354], the EC50 is 1 to 1000 nM.

Consider `Cc1cc(-c2cc(F)c(=O)n(Cc3ccc4c(c3)CCCO4)c2)nc(S(=O)(=O)CCC(OCc2ccccc2F)c2ccccc2)n1` (stereo not drawn) [Compound 355], for which the EC50 is 1 to 1000 nM.

Regarding `Cc1cc(-c2cc(F)c(=O)n(Cc3ccc4c(c3)N(C)CCO4)c2)nc(S(=O)(=O)CCC(OCc2ccccc2F)c2ccccc2)n1` (stereo not drawn) [Compound 356], the EC50 was 1 to 1000 nM.

On to `Cc1cc(-c2cc(F)c(=O)n(Cc3ccc4c(c3)OCCN4C)c2)nc(S(=O)(=O)CCC(OCc2ccccc2F)c2ccccc2)n1` (stereo not drawn) [Compound 357], for which the EC50 was 1 to 1000 nM.

Turning to `Cc1cc(-c2cc(F)c(=O)n(Cc3ccc4c(c3)OCCN4)c2)nc(S(=O)(=O)CCC(OCc2ccccc2F)c2ccccc2)n1` (stereo not drawn) [Compound 358], the EC50 is 1 to 1000 nM.

In the case of `Cc1cc(-c2cc(F)c(=O)n(Cc3ccc4c(c3)NCCO4)c2)nc(S(=O)(=O)CCC(OCc2ccccc2F)c2ccccc2)n1` (stereo not drawn) [Compound 359], the EC50 is 1 to 1000 nM.

On to `Cc1cc(-c2cc(F)c(=O)n(Cc3ccnc(CCO)c3)c2)nc(S(=O)(=O)CCC(OCc2ccccc2F)c2ccccc2)n1` (stereo not drawn) [Compound 360], for which the EC50 was 1 to 1000 nM.

`Cc1cc(-c2cc(F)c(=O)n(Cc3ccnc(N(C)CO)c3)c2)nc(S(=O)(=O)CCC(OCc2ccccc2F)c2ccccc2)n1` (stereo not drawn) [Compound 361]: the EC50 is 1 to 1000 nM.

Take `Cc1cc(-c2cc(F)c(=O)n(Cc3ccc4c(c3)OCO4)c2)nc(S(=O)(=O)CCCN2C(=O)Cc3ccccc32)n1` [Compound 362]: the EC50 was 1 to 1000 nM.

In the case of `Cc1cc(-c2cc(F)c(=O)n(Cc3ccc4nnn(C)c4c3)c2)nc(S(=O)(=O)CCCN2C(=O)Cc3ccccc32)n1` [Compound 363], the half-maximal effective concentration (EC50) was 1 to 1000 nM.

With `Cc1cc(-c2cc(F)c(=O)n(Cc3ccc4c(c3)OCO4)c2)nc(S(=O)(=O)CCCC(=O)NC23CC4CC(CC(C4)C2)C3)n1` [Compound 364], the EC50 is 1 to 1000 nM.

Regarding `Cc1cc(-c2cc(F)c(=O)n(Cc3ccc4nnn(C)c4c3)c2)nc(S(=O)(=O)CCCC(=O)NC23CC4CC(CC(C4)C2)C3)n1` [Compound 365], the EC50 is 1 to 1000 nM.

For the compound `Cc1cc(-c2cc(F)c(=O)n(Cc3ccc4c(c3)OCO4)c2)nc(S(=O)(=O)CCCn2c(=O)oc3ccccc32)n1` [Compound 366], the EC50 is 1 to 1000 nM.

With `Cc1cc(-c2cc(F)c(=O)n(Cc3ccc4nnn(C)c4c3)c2)nc(S(=O)(=O)CCCn2c(=O)oc3ccccc32)n1` [Compound 367], the concentration giving a half-maximal response (EC50) is 1 to 1000 nM.

Consider `Cc1cc(-c2ccc(=O)n(Cc3ccc4c(c3)OCCO4)n2)nc(S(=O)(=O)CCC(OCc2ccccc2F)c2ccccc2)n1` (stereo not drawn) [Compound 368], for which the concentration giving a half-maximal response (EC50) is 1 to 1000 nM.

`Cc1cc(-c2ccc(=O)n(Cc3ccc4nnn(C)c4c3)n2)nc(S(=O)(=O)CCC(OCc2ccccc2F)c2ccccc2)n1` (stereo not drawn) [Compound 369]: the EC50 was 1 to 1000 nM.

Take `Cc1cc(-c2cc(F)c(=O)n(Cc3ccc4c(c3)OCO4)c2)nc(S(=O)(=O)CCCC(=O)N(c2ccccc2)C2CCC2)n1` [Compound 370]: the half-maximal effective concentration (EC50) is 1 to 1000 nM.

With `Cc1cc(-c2cc(F)c(=O)n(Cc3ccc4c(c3)OCO4)c2)nc(S(=O)(=O)CCCC(=O)N(c2ccccc2)C(C)(C)C)n1` [Compound 371], the half-maximal effective concentration (EC50) is 1 to 1000 nM.

In the case of `Cc1cc(-c2cc(F)c(=O)n(Cc3ccc4c(c3)OCO4)c2)nc(S(=O)(=O)CCCC(=O)N(c2ccccc2)C2CC2)n1` [Compound 372], the EC50 was 1 to 1000 nM.

Consider `Cc1cc(-c2cc(F)c(=O)n(Cc3ccc4nnn(C)c4c3)c2)nc(S(=O)(=O)CCCC(=O)N(c2ccccc2)C2CCC2)n1` [Compound 373], for which the EC50 was 1 to 1000 nM.

With `Cc1cc(-c2cc(F)c(=O)n(Cc3ccc4nnn(C)c4c3)c2)nc(S(=O)(=O)CCCC(=O)N(c2ccccc2)C(C)(C)C)n1` [Compound 374], the EC50 was 1 to 1000 nM.

In the case of `Cc1cc(-c2cc(F)c(=O)n(Cc3ccc4nnn(C)c4c3)c2)nc(S(=O)(=O)CCCC(=O)N(c2ccccc2)C2CC2)n1` [Compound 375], the EC50 is 1 to 1000 nM.

As to `Cc1cc(-c2cc(F)c(=O)n(Cc3ccc4c(c3)OCO4)c2)nc(S(=O)(=O)CCCN(c2ccccc2)C2CCC2)n1` [Compound 376], the EC50 is 1 to 1000 nM.

Consider `Cc1cc(-c2cc(F)c(=O)n(Cc3ccc4c(c3)OCO4)c2)nc(S(=O)(=O)CCCN(c2ccccc2)C(C)(C)C)n1` [Compound 377], for which the EC50 was 1 to 1000 nM.

As to `Cc1cc(-c2cc(F)c(=O)n(Cc3ccc4c(c3)OCO4)c2)nc(S(=O)(=O)CCCN(c2ccccc2)C2CC2)n1` [Compound 378], the EC50 was 1 to 1000 nM.

As for `Cc1cc(-c2cc(F)c(=O)n(Cc3ccc4nnn(C)c4c3)c2)nc(S(=O)(=O)CCCN(c2ccccc2)C2CCC2)n1` [Compound 379], the EC50 is 1 to 1000 nM.

For the compound `Cc1cc(-c2cc(F)c(=O)n(Cc3ccc4nnn(C)c4c3)c2)nc(S(=O)(=O)CCCN(c2ccccc2)C(C)(C)C)n1` [Compound 380], the EC50 is 1 to 1000 nM.

For the compound `Cc1cc(-c2cc(F)c(=O)n(Cc3ccc4nnn(C)c4c3)c2)nc(S(=O)(=O)CCCN(c2ccccc2)C2CC2)n1` [Compound 381], the EC50 was 1 to 1000 nM.

In the case of `Cc1cc(-c2cc(F)c(=O)n(Cc3ccc4c(c3)OCO4)c2)nc(S(=O)(=O)CCCC(=O)N(C(C)(C)C)C(C)(C)C)n1` [Compound 382], the EC50 was 1 to 1000 nM.

As to `Cc1cc(-c2cc(F)c(=O)n(Cc3ccc4c(c3)OCO4)c2)nc(S(=O)(=O)CCC(OCc2ccccc2F)c2ccccn2)n1` (stereo not drawn) [Compound 383], the EC50 was 1 to 1000 nM.

Regarding `Cc1cc(-c2cc(F)c(=O)n(Cc3ccc4c(c3)OCO4)c2)nc(S(=O)(=O)CCC(OCc2ccccc2F)c2cccnc2)n1` (stereo not drawn) [Compound 384], the half-maximal effective concentration (EC50) was 1 to 1000 nM.

In the case of `Cc1cc(-c2cc(F)c(=O)n(Cc3ccc4c(c3)OCO4)c2)nc(S(=O)(=O)CCC(OCc2ccccc2F)c2ccncc2)n1` (stereo not drawn) [Compound 385], the EC50 was 1 to 1000 nM.

On to `Cc1cc(-c2cc(F)c(=O)n(Cc3ccc4c(c3)OCO4)c2)nc(S(=O)(=O)CCC(OCc2ccccc2F)c2cccn2C)n1` (stereo not drawn) [Compound 386], for which the 50% effective concentration (EC50) is 1 to 1000 nM.

With `Cc1cc(-c2cc(F)c(=O)n(Cc3ccc4c(c3)OCO4)c2)nc(S(=O)(=O)CCC(OCc2ccccc2F)c2cc3ccccc3n2C)n1` (stereo not drawn) [Compound 387], the EC50 was 1 to 1000 nM.

On to `Cc1cc(-c2cc(F)c(=O)n(Cc3ccc4c(c3)OCO4)c2)nc(S(=O)(=O)CCC(OCc2ccccc2F)c2ccco2)n1` (stereo not drawn) [Compound 388], for which the EC50 is 1 to 1000 nM.

Consider `Cc1cc(-c2cc(F)c(=O)n(Cc3ccc4c(c3)OCO4)c2)nc(S(=O)(=O)CCC(OCc2ccccc2F)c2cccs2)n1` (stereo not drawn) [Compound 389], for which the EC50 is 1 to 1000 nM.

For `Cc1cc(-c2cc(F)c(=O)n(Cc3ccc4c(c3)OCO4)c2)nc(S(=O)(=O)CCC(OCc2ccccc2F)c2cncs2)n1` (stereo not drawn) [Compound 390], the EC50 is 1 to 1000 nM.

Consider `Cc1cc(-c2cc(F)c(=O)n(Cc3ccc4c(c3)OCO4)c2)nc(S(=O)(=O)CCC(OCc2ccccc2F)c2ccc3ncccc3c2)n1` (stereo not drawn) [Compound 391], for which the EC50 was 1 to 1000 nM.

With `Cc1cc(-c2cc(F)c(=O)n(Cc3ccc4c(c3)OCO4)c2)nc(S(=O)(=O)CCC(OCc2ccccc2F)c2ccc3ccn(C)c3c2)n1` (stereo not drawn) [Compound 392], the EC50 was 1 to 1000 nM.

What is called EC50 is the concentration that produces a half-maximal response.
